According to PubChem BioAssay AID624435 (The Scripps Research Institute Molecular Screening Center, 2012):
Calls of active or inactive are those of the source.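 The calls were made as follows: active = inhibition of 30% or more at 100 µM, inferred from the inactive rule; inactive = inhibition below 30% at 100 µM.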

biological target: Serine/threonine-protein phosphatase 5 (Homo sapiens) (UniProt P53041); assay: PP5 inhibitors on histone substrate, late-stage follow-up, orthogonal assay for PP5 inhibitor project, biochemical, radiolabel, round 5, powder samples (AID 624435); conditions: purified PP5c, 33P-phosphohistone dephosphorylation, scintillation; at 50 µM; active compounds read high
Sequence (P53041 whole entry, looked up): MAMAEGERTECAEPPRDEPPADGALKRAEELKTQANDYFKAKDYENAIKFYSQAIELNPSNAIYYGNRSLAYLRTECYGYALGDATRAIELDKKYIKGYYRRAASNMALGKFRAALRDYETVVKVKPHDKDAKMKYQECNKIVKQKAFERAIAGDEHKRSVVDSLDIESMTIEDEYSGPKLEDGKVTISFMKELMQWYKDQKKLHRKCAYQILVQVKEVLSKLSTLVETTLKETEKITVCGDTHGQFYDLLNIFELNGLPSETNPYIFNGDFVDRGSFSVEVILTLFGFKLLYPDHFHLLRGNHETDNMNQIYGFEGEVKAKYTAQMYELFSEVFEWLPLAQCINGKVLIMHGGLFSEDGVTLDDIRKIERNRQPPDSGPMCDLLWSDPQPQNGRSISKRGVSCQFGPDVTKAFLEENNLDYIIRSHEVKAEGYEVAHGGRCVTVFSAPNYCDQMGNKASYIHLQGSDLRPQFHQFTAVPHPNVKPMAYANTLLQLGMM

| SMILES | inhibition |
| --- | --- |
| CCc1ccccc1-c1n[nH]nc1C(=O)O | 44.3% |
| O=C(O)c1nc(-n2cccc2)n[nH]1 | -1.61% (inactive) |
| O=C(O)c1cn[nH]n1 | -0.0127% (inactive) |
| O=C(O)c1n[nH]nc1-c1ccccc1-c1ccccc1 | 41.2% |
| Cc1n[nH]nc1C(=O)O | -4.84% (inactive) |
| O=C(O)c1nnn(-c2ccccc2)c1-c1ccccc1 | 0.733% (inactive) |
| O=C(O)c1cnn2ccccc12 | -5.1% (inactive) |
| O=C(O)c1cccn1-c1ccccc1 | -3.17% (inactive) |
| O=C(O)c1cc2cccnc2[nH]1 | -2.5% (inactive) |
| O=C(O)c1ncn[nH]1 | 2.61% (inactive) |
| COC(=O)c1n[nH]nc1-c1ccccc1 | 1.67% (inactive) |
| O=C(O)c1csc(Nc2ccccc2)n1 | -0.948% (inactive) |
| Cc1onc(C(=O)O)c1Cn1cccn1 | -2.66% (inactive) |
| O=C(O)c1cc2ccccn2n1 | -0.0487% (inactive) |
| O=C(O)c1n[nH]nc1-c1ccccn1 | 31.5% |
| O=C(O)Cn1nnc2ccccc21 | 0.388% (inactive) |
| Cc1cccc(-n2cnc(C(=O)O)c2)c1 | 2.84% (inactive) |
| Cc1ccccc1-c1n[nH]nc1C(=O)O | 39% |

| SMILES | inhibition |
| --- | --- |
| O=C(O)c1n[nH]c2ccccc12 | -1.07% (inactive) |
| O=C(O)c1cn(Cc2ccccc2)nn1 | -4.42% (inactive) |
| O=C(O)c1cc(-c2ccccc2)ncn1 | -6.61% (inactive) |
| O=C(O)c1c[nH]cc1-c1ccccc1 | -2.04% (inactive) |
| Cc1cccc(-c2noc(C)c2C(=O)O)c1 | -5.14% (inactive) |
| O=C(O)c1n[nH]nc1-c1cccnc1 | 2.2% (inactive) |
| O=C(O)c1cn[nH]c1-c1ccccc1 | -5.7% (inactive) |
| Cc1scc(C(=O)O)c1-c1ccccc1 | -4.13% (inactive) |
| O=C(O)c1ccccc1-c1ccccc1 | -5.88% (inactive) |
| O=C(O)CCn1nnc2ccccc21 | 0.241% (inactive) |
| O=C(O)c1nn(Cc2ccccc2)nc1Cl | 0.71% (inactive) |
| CC(C)c1ccccc1-c1n[nH]nc1C(=O)O | 30.2% |
| O=C(O)c1ccccc1-n1cccc1 | -7.51% (inactive) |
| CC(C)Oc1ccccc1-c1n[nH]nc1C(=O)O | 67.5% |
| O=C(O)c1nc2ncccn2n1 | -1.84% (inactive) |
| O=C(O)c1ccccc1-c1nn[nH]n1 | 0.116% (inactive) |
| O=C(O)c1cc(-c2ccccc2)n[nH]1 | -4.55% (inactive) |
| O=C(O)c1c(-c2ccccc2)nnc2ccccc12 | -0.78% (inactive) |
